# Reference: patent US12275719B2, “Small molecule inhibitors of galectin-3” (BRISTOL-MYERS SQUIBB COMPANY, priority 2019, dated 2025)
# Biological target: His-tagged recombinant human Gal-3 (hGal-3) (Homo sapiens, UniProt P17931)
# Assay: Gal-3 HTRF assay (hGal-3 / B-ASF binding inhibition)
# Conditions: Examples 26 to 29 and 66 to 68; HTRF, 15 nM hGal-3, 15 nM B-ASF
# Protocol: ASSAY BUFFER Composition: 25 mM HEPES, 100 mM NaCl, 0.005% Tween 20, 0.05% BSA prepared in sterile water (all reagents from Sigma).
# Positive Control: 100% DMSO (1 μL)+His-tagged hGal-3 (20 μL)+β-ASF (20 μL)+Anti-His Terbium Antibody (5 μL)+Strep d2 Antibody (5 μL).
# Negative Control: 100% DMSO (1 μL)+His-tagged hGal-3 (20 μL)+Anti His Terbium Antibody (5 μL)+Strep d2 Aantibody (5 μL).
# PROTOCOL: The Gal-3 assays were performed in 384 white Opti plates in three replicates at room temperature with gentle shaking at 250-300 rpm From the original stocks, […] working stock concentrations of His-tagged recombinant human Gal-3 (hGal-3) and that of B-ASF were prepared. From the working stock, 20 μL of hGal-3 (15 nM) and 20 μL B-ASF (15 nM) were added to the plates. In Negative Control, only hGal-3 was added. A concentration range of 50× working stocks were prepared for the compounds in 100% DMSO. Aliquots of 1 μL of the compounds were added to the wells and pre-incubated with 20 μL hGal-3 per well for 30 minutes Then 20 μL B-ASF were added and incubated for another 1 hour. To detect the signal, 5 μL (final conc. of 1.0 nM) terbium labelled Anti-His antibody was added and incubated for 30 min followed by adding 5 μL (final conc. of 20 nM) Streptavidin d2 and incubation for another 1 hour. The assay signal was detected using HTRF screen protocol (Excitation wavelength=340 nm, emission wavelength=615 nm/665 nm) on Envision 2104 Multilabel Reader. Data analysed using Toolset and Curve Master. Results are reported in the experimental section (IC50 in μM).
# Chain of His-tagged recombinant human Gal-3 (hGal-3) (P17931 whole entry): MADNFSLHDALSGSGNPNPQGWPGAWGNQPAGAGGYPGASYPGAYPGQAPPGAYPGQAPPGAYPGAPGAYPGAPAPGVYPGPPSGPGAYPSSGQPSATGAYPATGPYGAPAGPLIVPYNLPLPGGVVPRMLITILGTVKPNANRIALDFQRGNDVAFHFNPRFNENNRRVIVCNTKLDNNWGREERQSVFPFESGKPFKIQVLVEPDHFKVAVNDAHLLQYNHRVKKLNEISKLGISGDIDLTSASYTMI
row,IC50 [nM],SMILES
1,76,"OC[C@H]1O[C@@H](c2n[nH]c(=S)n2-c2cc(Cl)ccc2C(F)(F)F)[C@H](O)[C@@H](n2cc(-c3ccc(Br)c(F)c3F)nn2)[C@H]1O (single isomer, unassigned) [Example 27]"
2,6.9,"OC[C@H]1O[C@@H](c2n[nH]c(=S)n2-c2cc(Cl)ccc2C(F)(F)F)[C@H](O)[C@@H](n2cc(-c3ccc(Br)c(F)c3F)nn2)[C@H]1O (single isomer, unassigned) [Example 28]"
3,11,"OC[C@H]1O[C@@H](c2nncn2-c2cc(Cl)ccc2C(F)(F)F)[C@H](OCC(F)F)[C@@H](n2cc(-c3ccc(Br)c(F)c3F)nn2)[C@H]1O [Example 29, (2R,3R,4S,5R,6S)-4-(4-(4-bromo-2,3-difluorophenyl)-1H-1,2,3-triazol-1-yl)-6-(4-(5-chloro-2-(trifluoromethyl)phenyl)-4H-1,2,4-triazol-3-yl)-5-(2,2-difluoroethoxy)-2-(hydroxymethyl)tetrahydro-2H-pyran-3-ol]"

row,SMILES,IC50 [nM]
1,"OC[C@H]1O[C@@H](c2nncn2-c2cc(Cl)ccc2C(F)(F)F)[C@H](O)[C@@H](n2cc(-c3ccc(Br)c(F)c3F)nn2)[C@H]1O [Example 26, (2S,3R,4R,5R,6R)-4-(4-(4-bromo-2,3-difluorophenyl)-1H-1,2,3-triazol-1-yl)-2-(4-(5-chloro-2-(trifluoromethyl)phenyl)-4H-1,2,4-triazol-3-yl)-6-(hydroxymethyl)tetrahydro-2H-pyran-3,5-diol]",10

# Same assay, conditions: table of Examples 5 to 25
row,SMILES,IC50 [nM]
1,Cc1nc([C@@H]2O[C@H](CO)[C@H](O)[C@H](n3cc(-c4ccc5ccccc5c4F)nn3)[C@H]2O)n(-c2cc(Cl)ccc2C(F)(F)F)n1 [Example 6],62
2,Cc1nc([C@@H]2O[C@H](CO)[C@H](O)[C@H](n3cc(-c4ccc(Cl)c(Cl)c4F)nn3)[C@H]2O)n(-c2cc(Cl)ccc2C(F)(F)F)n1 [Example 7],6
3,Cc1nc([C@@H]2O[C@H](CO)[C@H](O)[C@H](n3cc(-c4ccc(Br)c(F)c4F)nn3)[C@H]2O)n(-c2cc(Cl)ncc2C(F)(F)F)n1 [Example 9],12
4,Cc1nc([C@@H]2O[C@H](CO)[C@H](O)[C@H](n3cc(-c4ccc(Br)c(F)c4F)nn3)[C@H]2O)n(-c2cc(Cl)ccc2OC(F)(F)F)n1 [Example 10],11
5,Cc1nc([C@@H]2O[C@H](CO)[C@H](O)[C@H](n3cc(-c4ccc(Cl)c(F)c4Cl)nn3)[C@H]2O)n(-c2cc(Cl)ccc2C(F)(F)F)n1 [Example 11],14
6,Cc1nc([C@@H]2O[C@H](CO)[C@H](O)[C@H](n3cc(-c4ccc(Br)cc4F)nn3)[C@H]2O)n(-c2cc(Cl)ccc2C(F)(F)F)n1 [Example 12],56
7,Cc1nc([C@@H]2O[C@H](CO)[C@H](O)[C@H](n3cc(-c4ccc(C#N)c(F)c4F)nn3)[C@H]2O)n(-c2cc(Cl)ccc2C(F)(F)F)n1 [Example 13],19
8,COc1c(Cl)ccc(-c2cn([C@H]3[C@@H](O)[C@@H](CO)O[C@@H](c4nc(C)nn4-c4cc(Cl)ccc4C(F)(F)F)[C@@H]3O)nn2)c1F [Example 14],137
9,Cc1nc([C@@H]2O[C@H](CO)[C@H](O)[C@H](n3cc(-c4ccc(Br)c(Cl)c4F)nn3)[C@H]2O)n(-c2cc(Cl)ccc2C(F)(F)F)n1 [Example 15],96
10,Cc1nc([C@@H]2O[C@H](CO)[C@H](O)[C@H](n3cc(-c4ccc(Br)c(F)c4C)nn3)[C@H]2O)n(-c2cc(Cl)ccc2C(F)(F)F)n1 [Example 16],74
11,Cc1nc([C@@H]2O[C@H](CO)[C@H](O)[C@H](n3cc(-c4ccc(Cl)c(C)c4F)nn3)[C@H]2O)n(-c2cc(Cl)ccc2C(F)(F)F)n1 [Example 17],18
12,COc1cc(-c2cn([C@H]3[C@@H](O)[C@@H](CO)O[C@@H](c4nc(C)nn4-c4cc(Cl)ccc4C(F)(F)F)[C@@H]3O)nn2)cc2ccccc12 [Example 18],1330
13,COc1cc(-c2cn([C@H]3[C@@H](O)[C@@H](CO)O[C@@H](c4nc(C)nn4-c4cc(Cl)ccc4C(F)(F)F)[C@@H]3O)nn2)cc(F)c1Br [Example 19],23
14,Cc1nc([C@@H]2O[C@H](CO)[C@H](O)[C@H](n3cc(-c4ccc(Cl)c(F)c4F)nn3)[C@H]2O)n(-c2ccc3ncsc3c2)n1 [Example 20],9

# Next, values leading:
row,IC50 [nM],SMILES
1,10,CO[C@@H]1[C@@H](n2cc(-c3ccc(Cl)c(F)c3F)nn2)[C@@H](O)[C@@H](CO)O[C@H]1c1nc(C)nn1-c1ccc2ncsc2c1 [Example 21]
2,55,Cc1nc([C@@H]2O[C@H](CO)[C@H](O)[C@H](n3cc(-c4ccc(Cl)c(F)c4F)nn3)[C@H]2O)n(-c2cc(Cl)cnc2C(F)(F)F)n1 [Example 22]
3,20,Cc1nc([C@@H]2O[C@H](CO)[C@H](O)[C@H](n3cc(-c4ccc(Br)c(F)c4F)nn3)[C@H]2O)n(-c2cc(Cl)ccc2C2CC2)n1 [Example 23]

# Same assay, conditions: table of Examples 30 to 65
row,IC50 [nM],SMILES
1,22,CO[C@@H]1[C@@H](n2cc(-c3ccc(Br)c(F)c3)nn2)[C@@H](O)[C@@H](CO)O[C@H]1c1ncnn1-c1cc(Cl)ccc1C(F)(F)F [Example 30]
2,24,CO[C@@H]1[C@@H](n2cc(-c3cc(F)c(Br)c(F)c3)nn2)[C@@H](O)[C@@H](CO)O[C@H]1c1ncnn1-c1cc(Cl)ccc1C(F)(F)F [Example 31]
3,20,OC[C@H]1O[C@@H](c2nncn2-c2cc(Cl)ccc2C(F)(F)F)[C@H](O)[C@@H](n2cc(-c3cc(F)c(Cl)c(Cl)c3)nn2)[C@H]1O [Example 34]
4,9.3,CO[C@@H]1[C@@H](n2cc(-c3ccc(Br)c(F)c3F)nn2)[C@@H](O)[C@@H](CO)O[C@H]1c1nncn1-c1cc(Cl)ccc1C(F)(F)F [Example 35]
5,35,CO[C@@H]1[C@@H](n2cc(-c3cc(F)c(Cl)c(Cl)c3)nn2)[C@@H](O)[C@@H](CO)O[C@H]1c1nncn1-c1cc(Cl)ccc1C(F)(F)F [Example 36]
6,5.7,OC[C@H]1O[C@@H](c2nncn2-c2cc(Cl)ccc2C(F)(F)F)[C@H](O)[C@@H](n2cc(-c3c(F)c(F)c(Br)c(F)c3F)nn2)[C@H]1O [Example 37]
7,11,OC[C@H]1O[C@@H](c2nncn2-c2cc(Cl)ccc2OC(F)(F)F)[C@H](O)[C@@H](n2cc(-c3ccc(Br)c(F)c3F)nn2)[C@H]1O [Example 38]
8,14,OC[C@H]1O[C@@H](c2nncn2-c2cc(Cl)ccc2OC(F)(F)F)[C@H](O)[C@@H](n2cc(-c3c(F)c(F)c(Br)c(F)c3F)nn2)[C@H]1O [Example 47]
9,14,CO[C@@H]1[C@@H](n2cc(-c3ccc(Br)c(F)c3F)nn2)[C@@H](O)[C@@H](CO)O[C@H]1c1nncn1-c1cc(Cl)ccc1OC(F)(F)F [Example 48]
10,14,OC[C@H]1O[C@@H](c2nncn2-c2cc(Cl)ccc2OC(F)(F)F)[C@H](O)[C@@H](n2cc(-c3ccc(Cl)c(F)c3F)nn2)[C@H]1O [Example 51]
11,9.7,OC[C@H]1O[C@@H](c2nncn2-c2cc(Cl)ccc2C(F)(F)F)[C@H](O)[C@@H](n2cc(-c3ccc(Cl)c(F)c3F)nn2)[C@H]1O [Example 52]

# Same assay, conditions: text of Examples 1 to 4; HTRF, 15 nM hGal-3, 15 nM B-ASF
row,IC50 [nM],SMILES
1,7,"Cc1nc([C@@H]2O[C@H](CO)[C@H](O)[C@H](n3cc(-c4ccc(Br)c(F)c4F)nn3)[C@H]2O)n(-c2ccc3ncsc3c2)n1 [Example 1, (2S,3R,4R,5R,6R)-2-(1-(Benzo[d]thiazol-6-yl)-3-methyl-1H-1,2,4-triazol-5-yl)-4-(4-(4-bromo-2,3-difluorophenyl)-1H-1,2,3-triazol-1-yl)-6-(hydroxymethyl)tetrahydro-2H-pyran-3,5-diol]"
2,13,"CO[C@@H]1[C@@H](n2cc(-c3ccc(Br)c(F)c3F)nn2)[C@@H](O)[C@@H](CO)O[C@H]1c1nc(C)nn1-c1ccc2ncsc2c1 [Example 2, (2R,3R,4S,5R,6S)-6-(1-(Benzo[d]thiazol-6-yl)-3-methyl-1H-1,2,4-triazol-5-yl)-4-(4-(4-bromo-2,3-difluorophenyl)-1H-1,2,3-triazol-1-yl)-2-(hydroxymethyl)-5-methoxytetrahydro-2H-pyran-3-ol]"
3,14,"COc1cc(-c2cn([C@H]3[C@@H](O)[C@@H](CO)O[C@@H](c4nc(C)nn4-c4cc(Cl)ccc4C(F)(F)F)[C@@H]3O)nn2)cc(F)c1Cl [Example 3, (2S,3R,4R,5R,6R)-2-(1-(5-Chloro-2-(trifluoromethyl)phenyl)-3-methyl-1H-1,2,4-triazol-5-yl)-4-(4-(4-chloro-3-fluoro-5-methoxyphenyl)-1H-1,2,3-triazol-1-yl)-6-(hydroxymethyl)tetrahydro-2H-pyran-3,5-diol]"
4,23,"CNC(=O)CO[C@@H]1[C@@H](n2cc(-c3cc(F)c(Cl)c(F)c3)nn2)[C@@H](O)[C@@H](CO)O[C@H]1c1nc(C)nn1-c1cc(Cl)ccc1C(F)(F)F [Example 4, 2-(((2S,3R,4S,5R,6R)-2-(1-(5-chloro-2-(trifluoromethyl)phenyl)-3-methyl-1H-1,2,4-triazol-5-yl)-4-(4-(4-chloro-3,5-difluorophenyl)-1H-1,2,3-triazol-1-yl)-5-hydroxy-6-(hydroxymethyl)tetrahydro-2H-pyran-3-yl)oxy)-N-methylacetamide]"
